Measurements as given in ChEMBL document CHEMBL1201862, “PubChem BioAssay data set” (2004).
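Assay format: 96-well plates, 48-hour exposure. GI50 marks 50% less growth.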 Activity calls are given as the source filed them. Rule as the data show it: active = GI50 up to about 1.1 µM and inactive = higher.

Columns and labels:
Assay in all cases: NCI tumour cell line growth inhibition, 48 h
SN12C = tested on: SN12C
TK-10 = tested on: TK-10
HOP-92 = tested on: HOP-92
K562 = tested on: K562
CCRF-CEM = tested on: CCRF-CEM
IGROV-1 = tested on: IGROV-1
A498 = tested on: A498
SK-MEL-5 = tested on: SK-MEL-5
MCF7 = tested on: MCF7
786-0 = tested on: 786-0
PC-3 = tested on: PC-3
KM12 = tested on: KM12
MDA-MB-231 = tested on: MDA-MB-231
HCT-116 = tested on: HCT-116
T47D = tested on: T47D
MDA-MB-435 = tested on: MDA-MB-435
BT-549 = tested on: BT-549
OVCAR-3 = tested on: OVCAR-3
RXF 393 = tested on: RXF 393

Measured: GI50

O=C1C[C@H](CCC(=O)OCc2ccccc2)NC(=O)C[C@H](CCC(=O)OCc2ccccc2)NC(=O)C[C@H](CCC(=O)OCc2ccccc2)N1
inactive: SN12C > 100 µM | TK-10 6.24 µM | HOP-92 3.92 µM | K562 > 100 µM | CCRF-CEM > 100 µM | IGROV-1 50.2 µM | A498 7.57 µM | SK-MEL-5 > 100 µM | MCF7 > 100 µM | 786-0 8.15 µM | PC-3 > 100 µM | KM12 > 100 µM | MDA-MB-231 14.2 µM | HCT-116 26.2 µM | T47D 44.3 µM | MDA-MB-435 > 100 µM | BT-549 24.3 µM | OVCAR-3 97.1 µM | RXF 393 2.36 µM

C[C@H]1/C(=C/C(=O)OCCN(C)C)CC[C@H]2[C@H]1C(=O)C[C@H]1C(C)(C)[C@@H](O)CC[C@]21C
inactive: SN12C > 100 µM | TK-10 > 100 µM | HOP-92 > 100 µM | CCRF-CEM > 100 µM | IGROV-1 > 100 µM | A498 > 100 µM | SK-MEL-5 > 100 µM | MCF7 > 100 µM | 786-0 > 100 µM | PC-3 > 100 µM | KM12 > 100 µM | MDA-MB-231 > 100 µM | HCT-116 > 100 µM | T47D > 100 µM | MDA-MB-435 > 100 µM | BT-549 > 100 µM | OVCAR-3 > 100 µM | RXF 393 > 100 µM

O=C(Cn1c(C(=O)/C=C/c2ccc(Cl)c(Cl)c2)nc2ccccc21)c1ccccc1
inactive: SN12C 16 µM | TK-10 27.9 µM | HOP-92 25.2 µM | K562 33.7 µM | CCRF-CEM 6.92 µM | IGROV-1 22.6 µM | A498 26.1 µM | SK-MEL-5 16.9 µM | MCF7 26.9 µM | 786-0 18.8 µM | PC-3 29.3 µM | KM12 19.6 µM | MDA-MB-231 22.7 µM | HCT-116 15.9 µM | T47D 31 µM | MDA-MB-435 19.1 µM | BT-549 32.1 µM | OVCAR-3 15.2 µM | RXF 393 24 µM

CC[C@@H]1CC[C@@H]2[C@H](CC[C@]3(C)[C@@H](OS(=O)(=O)c4ccc(C)cc4)CC[C@@H]23)[C@H]1CO
inactive: SN12C 78.5 µM | TK-10 > 100 µM | HOP-92 > 100 µM | K562 69.2 µM | CCRF-CEM > 100 µM | IGROV-1 > 100 µM | A498 > 100 µM | SK-MEL-5 42.6 µM | MCF7 43.3 µM | 786-0 > 100 µM | PC-3 82 µM | KM12 > 100 µM | MDA-MB-231 > 100 µM | HCT-116 > 100 µM | T47D 29.2 µM | MDA-MB-435 > 100 µM | BT-549 > 100 µM | OVCAR-3 > 100 µM | RXF 393 > 100 µM

COc1ccc(C(=O)c2sc(N(C)C)nc2-c2ccccc2)cc1
inactive: SN12C 39.6 µM | TK-10 37.9 µM | HOP-92 91.6 µM | K562 35.4 µM | CCRF-CEM 5.07 µM | IGROV-1 42.6 µM | A498 26.9 µM | SK-MEL-5 34 µM | MCF7 21.6 µM | 786-0 34.4 µM | PC-3 28.9 µM | KM12 15.8 µM | MDA-MB-231 33.7 µM | HCT-116 31 µM | T47D 33.6 µM | MDA-MB-435 6.4 µM | BT-549 26.1 µM | OVCAR-3 16.8 µM | RXF 393 54.3 µM

CCN(CC)CCN1c2ccccc2Sc2ccc3ccccc3c21
inactive: SN12C 11.7 µM | TK-10 1.67 µM | HOP-92 3.37 µM | K562 4.66 µM | CCRF-CEM 2.92 µM | IGROV-1 10.2 µM | A498 11.4 µM | SK-MEL-5 4.72 µM | MCF7 9.27 µM | 786-0 11.3 µM | PC-3 6.73 µM | KM12 7 µM | MDA-MB-231 6.03 µM | HCT-116 10.8 µM | T47D 2.01 µM | MDA-MB-435 8.63 µM | BT-549 14.9 µM | OVCAR-3 11.6 µM | RXF 393 2.12 µM

Cc1n[nH]c(=O)n1-n1cccc1
inactive: SN12C > 100 µM | TK-10 > 100 µM | HOP-92 > 100 µM | K562 > 100 µM | CCRF-CEM > 100 µM | IGROV-1 > 100 µM | A498 > 100 µM | SK-MEL-5 > 100 µM | MCF7 > 100 µM | 786-0 > 100 µM | PC-3 > 100 µM | KM12 > 100 µM | MDA-MB-231 > 100 µM | HCT-116 > 100 µM | T47D > 100 µM | MDA-MB-435 > 100 µM | BT-549 > 100 µM | OVCAR-3 > 100 µM | RXF 393 > 100 µM

Clc1ccc(-c2cn3c(nc4ccccc43)c(-c3ccccc3)n2)cc1
inactive: SN12C 36.5 µM | TK-10 22 µM | HOP-92 18 µM | K562 > 84.7 µM | CCRF-CEM > 70.8 µM | IGROV-1 24 µM | A498 23.9 µM | SK-MEL-5 17.7 µM | MCF7 28.1 µM | 786-0 9.35 µM | PC-3 18.7 µM | KM12 > 57.5 µM | MDA-MB-231 42.6 µM | HCT-116 29.9 µM | T47D 36.6 µM | MDA-MB-435 25.2 µM | BT-549 19.5 µM | OVCAR-3 27.7 µM | RXF 393 15.6 µM

Nc1ccc(Oc2ccc(C34CC5CC(C3)CC(c3ccc(Oc6ccc(N)cc6)cc3)(C5)C4)cc2)cc1
inactive: SN12C 12.5 µM | TK-10 10.3 µM | HOP-92 6.05 µM | K562 15.8 µM | CCRF-CEM > 22 µM | IGROV-1 5.38 µM | A498 12 µM | SK-MEL-5 12.6 µM | MCF7 4.81 µM | 786-0 10.2 µM | PC-3 6.28 µM | KM12 7.67 µM | MDA-MB-231 11.1 µM | HCT-116 7.55 µM | T47D 6.84 µM | MDA-MB-435 7.53 µM | BT-549 8.69 µM | OVCAR-3 7.66 µM | RXF 393 12.8 µM

O=S(=O)(O)c1cc(O)c(/N=N\C2S(=O)(=O)OCCOS2(=O)=O)c2ccccc12
inactive: SN12C > 100 µM | TK-10 > 100 µM | HOP-92 > 100 µM | K562 > 100 µM | CCRF-CEM 28.8 µM | IGROV-1 37.9 µM | A498 > 100 µM | SK-MEL-5 > 100 µM | MCF7 > 100 µM | 786-0 61.9 µM | PC-3 > 100 µM | KM12 > 100 µM | MDA-MB-231 > 100 µM | HCT-116 > 100 µM | T47D > 100 µM | MDA-MB-435 > 100 µM | BT-549 > 100 µM | OVCAR-3 > 100 µM | RXF 393 > 100 µM

O=C(NCCCCCCCN1CCCCCCC1)C(C1CCCCC1)C1CCCCC1
inactive: SN12C 13.1 µM | TK-10 12.9 µM | HOP-92 9.06 µM | K562 2.77 µM | CCRF-CEM 6.97 µM | IGROV-1 12.3 µM | A498 5.83 µM | SK-MEL-5 2.42 µM | MCF7 7.16 µM | 786-0 4.74 µM | PC-3 8.57 µM | KM12 6.75 µM | MDA-MB-231 8.51 µM | HCT-116 7.66 µM | T47D 6.05 µM | MDA-MB-435 7.67 µM | BT-549 14.3 µM | OVCAR-3 6.07 µM | RXF 393 5.61 µM

O=C(O)CC12CC3CC(CC(O)(C3)C1)C2
inactive: SN12C > 100 µM | TK-10 > 100 µM | HOP-92 > 100 µM | K562 > 100 µM | IGROV-1 > 100 µM | A498 > 100 µM | SK-MEL-5 > 100 µM | MCF7 > 100 µM | 786-0 > 100 µM | PC-3 > 100 µM | KM12 > 100 µM | MDA-MB-231 > 100 µM | HCT-116 > 100 µM | T47D > 100 µM | MDA-MB-435 > 100 µM | BT-549 > 100 µM | OVCAR-3 3.14 µM | RXF 393 > 100 µM

c1c[nH]c(CN2CCN(Cc3ncc[nH]3)CC2)n1
inactive: SN12C > 100 µM | TK-10 > 100 µM | HOP-92 > 100 µM | CCRF-CEM > 100 µM | IGROV-1 > 100 µM | A498 > 100 µM | SK-MEL-5 > 100 µM | MCF7 > 100 µM | 786-0 > 100 µM | PC-3 > 100 µM | KM12 > 100 µM | MDA-MB-231 > 100 µM | HCT-116 > 100 µM | T47D > 100 µM | MDA-MB-435 > 100 µM | BT-549 > 100 µM | OVCAR-3 > 100 µM | RXF 393 > 100 µM

CC(=O)OCc1cn(S(=O)(=O)c2ccc(C)cc2)cn1
inactive: SN12C > 100 µM | TK-10 > 100 µM | HOP-92 > 100 µM | K562 > 100 µM | CCRF-CEM 26.7 µM | IGROV-1 > 100 µM | A498 > 100 µM | SK-MEL-5 46.9 µM | MCF7 25.2 µM | 786-0 > 100 µM | PC-3 > 100 µM | MDA-MB-231 > 100 µM | HCT-116 24 µM | T47D > 100 µM | MDA-MB-435 19.6 µM | BT-549 > 100 µM | OVCAR-3 24.2 µM | RXF 393 > 100 µM
